Numbering of substitutions follows the chain as printed.
Assays:
Experiment in all cases: Relative rates of hydrolysis of poly-, oligosaccharides and aryl-glycosides
Format in all cases: biochemical
HvExoI W286F mutant = target: T1, HvExoI W286F mutant (Hordeum vulgare, UniProt Q9XEI3, W311F); details: substance is the substrate, nd = activity not detected
T1 sequence (Q9XEI3 26-630 W311F): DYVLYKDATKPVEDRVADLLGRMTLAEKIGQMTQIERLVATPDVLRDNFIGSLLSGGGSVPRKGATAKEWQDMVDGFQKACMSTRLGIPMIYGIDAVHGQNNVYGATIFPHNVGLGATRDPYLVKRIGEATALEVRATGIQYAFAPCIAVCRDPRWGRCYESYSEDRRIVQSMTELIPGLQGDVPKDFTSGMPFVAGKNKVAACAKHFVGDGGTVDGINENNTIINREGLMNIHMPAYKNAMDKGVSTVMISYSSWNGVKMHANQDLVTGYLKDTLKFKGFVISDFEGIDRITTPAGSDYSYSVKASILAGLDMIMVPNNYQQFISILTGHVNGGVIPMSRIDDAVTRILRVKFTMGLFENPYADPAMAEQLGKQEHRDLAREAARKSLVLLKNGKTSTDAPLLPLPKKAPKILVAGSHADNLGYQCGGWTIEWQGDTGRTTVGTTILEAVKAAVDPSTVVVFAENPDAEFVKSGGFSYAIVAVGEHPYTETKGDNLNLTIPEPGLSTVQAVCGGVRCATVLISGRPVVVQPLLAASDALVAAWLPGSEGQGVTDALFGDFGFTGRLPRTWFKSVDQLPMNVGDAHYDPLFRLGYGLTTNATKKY
Experimental: (§1) Dependency of activities of WT and mutant HvExoI on pH (McIlvaine buffers in the pH range of 3.5–8.5 at 30 °C) and temperature (100 mM sodium acetate buffer, pH 5.25, temperature range 0–80 °C, 15 min incubations) were determined using 0.2% (w/v) 4NP-Glc[21],[59]. Relative rates of hydrolysis of β-linked poly-, oligosaccharides, and aryl-glucosides were determined using near-homogenous HvExoI at 50 pmoles. […] Kinetic parameters were calculated from the analyses of Michaelis-Menten plots with Grafit 7.0.3[62] and processed by a proportional weighted fit, using nonlinear regression. The relative rates of hydrolysis, kinetic, and inhibition data were rounded to one or two decimal points (Supplementary Tables 2–4).

WT HvExoI = WT HvExoI (Hordeum vulgare, UniProt Q9XEI3); details: substance is the substrate, HvExoI at 50 pmoles, nd = activity not detected
Chain of WT HvExoI (Q9XEI3 entry or part of it): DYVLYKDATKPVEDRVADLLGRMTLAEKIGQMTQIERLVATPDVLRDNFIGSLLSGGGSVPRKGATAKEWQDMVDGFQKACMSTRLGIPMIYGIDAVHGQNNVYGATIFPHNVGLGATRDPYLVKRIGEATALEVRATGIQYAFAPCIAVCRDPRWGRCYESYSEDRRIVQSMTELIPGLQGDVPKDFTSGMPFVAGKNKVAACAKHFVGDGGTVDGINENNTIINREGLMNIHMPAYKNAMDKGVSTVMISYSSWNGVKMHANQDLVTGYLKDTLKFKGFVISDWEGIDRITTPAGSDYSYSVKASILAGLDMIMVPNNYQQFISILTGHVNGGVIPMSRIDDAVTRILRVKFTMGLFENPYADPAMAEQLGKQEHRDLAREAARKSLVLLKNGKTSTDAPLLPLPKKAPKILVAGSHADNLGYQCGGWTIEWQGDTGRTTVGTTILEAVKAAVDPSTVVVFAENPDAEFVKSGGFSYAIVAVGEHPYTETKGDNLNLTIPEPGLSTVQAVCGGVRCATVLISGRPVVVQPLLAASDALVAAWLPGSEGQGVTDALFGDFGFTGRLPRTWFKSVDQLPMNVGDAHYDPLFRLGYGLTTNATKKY
Experimental: as §1

HvExoI W434H mutant = target: T2, HvExoI W434H mutant (Hordeum vulgare, UniProt Q9XEI3, W459H); details: substance is the substrate
T2 sequence (Q9XEI3 26-630 W459H): T1 sequence (Q9XEI3 26-630 W311F) with F286W, W434H
Experimental: as §1

HvExoI W286Y mutant = target: T3, HvExoI W286Y mutant (Hordeum vulgare, UniProt Q9XEI3, W311Y); details: substance is the substrate, nd = activity not detected
T3 sequence (Q9XEI3 26-630 W311Y): T1 sequence (Q9XEI3 26-630 W311F) with F286Y
Experimental: as §1

HvExoI W434F mutant = target: T4, HvExoI W434F mutant (Hordeum vulgare, UniProt Q9XEI3, W459F); details: substance is the substrate, nd = activity not detected
T4 sequence (Q9XEI3 26-630 W459F): T1 sequence (Q9XEI3 26-630 W311F) with F286W, W434F
Experimental: as §1

## laminarin
HvExoI W286F mutant
  Activity (relative rate of hydrolysis): 1.1 ± 0.1 μmole/min per mg protein
WT HvExoI
  Activity (relative rate of hydrolysis): 54.4 ± 0.5 μmole/min per mg protein
HvExoI W434H mutant
  Activity (relative rate of hydrolysis): 0.7 ± 0.02 μmole/min per mg protein
HvExoI W286Y mutant
  Activity (relative rate of hydrolysis): 14.2 ± 1.3 μmole/min per mg protein
HvExoI W434F mutant
  Activity (relative rate of hydrolysis): 7.8 ± 0.4 μmole/min per mg protein

## Cellobiose
HvExoI W286F mutant
  Activity (relative rate of hydrolysis): 0.1 ± 0.01 μmole/min per mg protein
WT HvExoI
  Activity (relative rate of hydrolysis): 4.6 ± 0.2 μmole/min per mg protein
HvExoI W434H mutant
  Activity (relative rate of hydrolysis): 0.1 ± 0.01 μmole/min per mg protein
HvExoI W286Y mutant
  Activity (relative rate of hydrolysis): 3.2 ± 0.1 μmole/min per mg protein
HvExoI W434F mutant
  Activity (relative rate of hydrolysis): 0.4 ± 0.1 μmole/min per mg protein

## OC[C@H]1O[C@@H](O[C@H]2[C@H](O)[C@@H](O)[C@H](O[C@H]3[C@H](O)[C@@H](O)[C@H](O[C@H]4[C@H](O)[C@@H](O)[C@H](O[C@H]5[C@H](O)[C@@H](O)[C@H](O[C@H]6[C@H](O)[C@@H](O)C(O)O[C@@H]6CO)O[C@@H]5CO)O[C@@H]4CO)O[C@@H]3CO)O[C@@H]2CO)[C@H](O)[C@@H](O)[C@@H]1O (some centres unmarked) [Cellohexaose]
HvExoI W286F mutant
  Activity (relative rate of hydrolysis): 0.1 ± 0.01 μmole/min per mg protein
WT HvExoI
  Activity (relative rate of hydrolysis): 9.1 ± 0.2 μmole/min per mg protein
HvExoI W434H mutant
  Activity (relative rate of hydrolysis): 0.3 ± 0.02 μmole/min per mg protein
HvExoI W286Y mutant
  Activity (relative rate of hydrolysis): 7.0 ± 0.1 μmole/min per mg protein
HvExoI W434F mutant
  Activity (relative rate of hydrolysis): 1.9 ± 0.1 μmole/min per mg protein

## O=[N+]([O-])c1ccc(O[C@@H]2O[C@H](CO)[C@@H](O)[C@H](O)[C@H]2O)cc1 [4NP-Glc, 4-nitrophenyl β-D-glucopyranoside]
HvExoI W286F mutant
  Activity (relative rate of hydrolysis): 0.9 ± 0.01 μmole/min per mg protein
WT HvExoI
  Activity (relative rate of hydrolysis): 12.4 ± 0.8 μmole/min per mg protein
HvExoI W434H mutant
  Activity (relative rate of hydrolysis): 2.4 ± 0.2 μmole/min per mg protein
HvExoI W286Y mutant
  Activity (relative rate of hydrolysis): 19.6 ± 0.01 μmole/min per mg protein
HvExoI W434F mutant
  Activity (relative rate of hydrolysis): 5.0 ± 0.01 μmole/min per mg protein

## OC[C@H]1O[C@@H](O[C@H]2[C@H](O)[C@@H](O)[C@H](O[C@H]3[C@H](O)[C@@H](O)C(O)O[C@@H]3CO)O[C@@H]2CO)[C@H](O)[C@@H](O)[C@@H]1O (some centres unmarked) [Cellotriose]
HvExoI W286F mutant
  Activity (relative rate of hydrolysis): 0.1 ± 0.01 μmole/min per mg protein
WT HvExoI
  Activity (relative rate of hydrolysis): 8.8 ± 0.4 μmole/min per mg protein
HvExoI W434H mutant
  Activity (relative rate of hydrolysis): 0.3 ± 0.03 μmole/min per mg protein
HvExoI W286Y mutant
  Activity (relative rate of hydrolysis): 5.6 ± 0.1 μmole/min per mg protein
HvExoI W434F mutant
  Activity (relative rate of hydrolysis): 1.2 ± 0.3 μmole/min per mg protein

## OC[C@H]1O[C@@H](O[C@H]2C(O)O[C@H](CO)[C@@H](O)[C@@H]2O)[C@H](O)[C@@H](O)[C@@H]1O (some centres unmarked) [Sophorose]
HvExoI W286F mutant
  Activity (relative rate of hydrolysis): 0.6 ± 0.01 μmole/min per mg protein
WT HvExoI
  Activity (relative rate of hydrolysis): 6.0 ± 0.1 μmole/min per mg protein
HvExoI W434H mutant
  Activity (relative rate of hydrolysis): 0.6 ± 0.1 μmole/min per mg protein
HvExoI W286Y mutant
  Activity (relative rate of hydrolysis): 12.5 ± 0.2 μmole/min per mg protein
HvExoI W434F mutant
  Activity (relative rate of hydrolysis): 6.6 ± 0.4 μmole/min per mg protein

## OC[C@H]1O[C@@H](O[C@H]2[C@H](O)[C@@H](O)[C@H](O[C@H]3[C@H](O)[C@@H](O)[C@H](O[C@H]4[C@H](O)[C@@H](O)[C@H](O[C@H]5[C@H](O)[C@@H](O)C(O)O[C@@H]5CO)O[C@@H]4CO)O[C@@H]3CO)O[C@@H]2CO)[C@H](O)[C@@H](O)[C@@H]1O (some centres unmarked) [Cellopentaose]
HvExoI W286F mutant
  Activity (relative rate of hydrolysis): 0.1 ± 0.01 μmole/min per mg protein
WT HvExoI
  Activity (relative rate of hydrolysis): 8.4 ± 0.4 μmole/min per mg protein
HvExoI W434H mutant
  Activity (relative rate of hydrolysis): 0.2 ± 0.01 μmole/min per mg protein
HvExoI W286Y mutant
  Activity (relative rate of hydrolysis): 5.8 ± 0.2 μmole/min per mg protein
HvExoI W434F mutant
  Activity (relative rate of hydrolysis): 1.7 ± 0.1 μmole/min per mg protein

## OC[C@H]1O[C@@H](O[C@@H]2[C@@H](O)[C@H](O[C@@H]3[C@@H](O)[C@H](O[C@H]4[C@H](O)[C@@H](CO)OC(O)[C@@H]4O)O[C@H](CO)[C@H]3O)O[C@H](CO)[C@H]2O)[C@H](O)[C@@H](O)[C@@H]1O (some centres unmarked) [Laminaritetraose]
HvExoI W286F mutant
  Activity (relative rate of hydrolysis): 1.1 ± 0.1 μmole/min per mg protein
WT HvExoI
  Activity (relative rate of hydrolysis): 12.3 ± 0.5 μmole/min per mg protein
HvExoI W434H mutant
  Activity (relative rate of hydrolysis): 1.4 ± 0.1 μmole/min per mg protein
HvExoI W286Y mutant
  Activity (relative rate of hydrolysis): 13.8 ± 0.1 μmole/min per mg protein
HvExoI W434F mutant
  Activity (relative rate of hydrolysis): 15.0 ± 1.5 μmole/min per mg protein

## OC[C@H]1O[C@@H](O[C@H]2[C@H](O)[C@@H](CO)OC(O)[C@@H]2O)[C@H](O)[C@@H](O)[C@@H]1O (some centres unmarked) [Laminaribiose]
HvExoI W286F mutant
  Activity (relative rate of hydrolysis): 0.6 ± 0.04 μmole/min per mg protein
HvExoI W434H mutant
  Activity (relative rate of hydrolysis): 0.8 ± 0.04 μmole/min per mg protein
HvExoI W286Y mutant
  Activity (relative rate of hydrolysis): 13.9 ± 0.1 μmole/min per mg protein
HvExoI W434F mutant
  Activity (relative rate of hydrolysis): 14.9 ± 1.7 μmole/min per mg protein

From paper PMC9508125, “The evolutionary advantage of an aromatic clamp in plant family 3 glycoside exo-hydrolases” (Nature Communications, 2022)
